{
  "source": "paper PMC5431435",
  "about": "“A short artificial antimicrobial peptide shows potential to prevent or treat bone infections” (Scientific Reports, 2017)",
  "key": {"[1]": {"system": "human primary osteoblast-like cells", "assay_type": "cell-based", "procedure": "(1) For the cytotoxicity test, 1 × 10^4 cells were seeded in 48-well plates with cultivation medium (CM) DMEM/Ham’s F-12 (D/H; Biochrom, Germany) + 10% fetal calf serum (FCS; Biochrom, Germany) + 1% penicillin/streptomycin (P/S; Biochrom, Germany) + 0.05 mM L-ascorbic-2 phosphate (L-Asc) + 0.05 mM β-glycerolphosphate (β-Glyc) and incubated overnight at 37 °C, 5% CO2 and 95% relative humidity. After adding the AMPs (3–542 µg/ml - depending on the AMP) or gentamicin (8–1024 µg/ml) in CM with 1% FCS, without Pen/Strep, cells were cultured for three days. Cell viability was determined with an AlamarBlue® assay before adding the AMPs and after 3 days. Alkaline phosphatase activity was measured on day 3.\nAlamar Blue® (Biozol, Germany) was done according to the manufacturer’s instruction."}, "[2]": {"system": "S. aureus (ATCC 29213)", "test": "Zone of inhibition test of PDLLA-coated titanium wires", "assay_type": "cell-based, Staphylococcus aureus", "conditions": "10, 20, 30% w/w in poly(D,L-lactide) coating, n = 3", "procedure": "Titanium wires (diameter 1 mm, Synthes, USA) were coated with Poly(D,L-lactide) (PDLLA, Boehringer Ingelheim, Germany) and incorporated AMP2 at three different concentrations: 10% w/w, 20% w/w, or 30% w/w. Gentamicin/PDLLA (10% w/w) or PDLLA coated wires served as control. Briefly, 100 mg PDLLA was solved in 1.5 ml ethyl acetate and the wires were coated in a dipping procedure. Details of the coating were described previously. Three nails of each group were placed on Mueller-Hinton agar plates plated with S. aureus (ATCC 29213) and the zone of inhibition (ZOI) was quantified after 1, 3, 7, and 14 days using ImageJ software."}, "[3]": {"system": "human primary osteoblast-like cells", "test": "Scratch assay (cell migration)", "assay_type": "cell-based", "procedure": "(3) The effect of AMP2 on cell migration was assessed. Human primary osteoblast-like cells were seeded into 24-well plates and cultured in cultivation media. After reaching confluence, medium was removed and a cross scratch was made using a 10 µl pipette tip using a modified protocol. […] Using ImageJ software (version 1.4.8.; https://imagej.nih.gov/ij/) the diameter of the scratch was measured and the closure over time calculated (n = 3)."}, "[4]": {"system": "human primary osteoblast-like cells", "conditions": "differentiation medium with 17 or 133 µg/ml AMP2, days 0, 7, 14, 21", "experimental": "Confluent cells were cultured for 21 days in cultivation medium (CM), differentiation medium (DM: D/H + 10% FCS + 1% P/S + 0.5 mM L-Asc + 10 mM β-Glyc + 100 nM dexamethasone + 1.5 mM calcium chloride) and DM with a low (17 µg/ml) and a high (133 µg/ml) AMP2 concentration. Medium was changed every 3–4 days and fresh AMP was added by each change. Cells from two donors were used and the experiments were done in triplicate (n = 6).\nCells were incubated with 0.13% w/v 4-nitrophenyl phosphate disodium salt hexahydrate (Sigma-Aldrich, Germany) dissolved in 0.1 M AP-buffer (50 mM glycine, 100 mM Tris-Base, 1 mM MgCl2 in dH2O) at pH 10.5 for 30 min at 37 °C and absorbance was measured at 405 nm wavelength. […]\nCells were fixed with 3.7% v/v formalin for 10 min at RT and incubated with 0.5% w/v alizarin red (Sigma-Aldrich, Germany) in dH2O for 10 min at RT. Quantification was done by removing staining with 5% w/v SDS in 5 mM HCl and measuring absorbance at 570 nm.\nRNA was isolated after 0, 7, 14 and 21 days in culture using the NucleoSpin RNA Kit (Macherey Nagel, Germany). […] For all primers, amplification efficiencies were analyzed and mean normalized expression (MNE) ratios were calculated using the ΔΔCt method with efficiency correction and normalization to the control (d0 of differentiation) and 18 S ribosomal RNA used as a reference gene."}, "[5]": {"system": "S. epidermidis biofilms", "test": "FISH of biofilm grown on polyurethane waver", "assay_type": "cell-based, Staphylococcus epidermidis", "conditions": "n = 10 pictures", "procedure": "Fluorescence in situ hybridization (FISH) was used to visualize the effect of the AMP2 on a biofilm. S. epidermidis (PIA 8400) biofilm was grown on 5 × 8 mm polyurethane (PU) waver (Epurex Films, Germany) in the incubator at 37 °C for 72 hours under aerobic conditions. After biofilm formation, medium was replaced by MH^++ medium containing different concentrations of the AMP2 (4 or 8 µg/ml) or phosphate buffered saline as control. After further 24 hours of incubation on a rotation shaker, waver were removed, fixed and embedded in methylmethacrylate (Technovit 8100, Kulzer, Germany) and sectioned as described elsewhere. To visualize the biofilm, samples were stained with nucleic acid stain DAPI and the Cy3-labeled Staphylococcus-specific FISH-probe STAPHY (5′[…]3′, biomers, Germany) as published, [52]. A nonsense probe NON338 labeled in Cy5 was used to exclude unspecific probe binding. After incubation in a dark, humid chamber for 2 hours at 50 °C, the slides were rinsed with sterile water, dried, and mounted using Vectashield mounting medium (Vector Laboratories, Burlingame, CA). Image analysis was done using an epifluorescence microscope (Axioplan 2; Carl Zeiss, Jena, Germany) equipped with narrow band filter sets (AHF Analysentechnik, Germany). Image acquisition was performed with an AxioCam MRm (Zeiss, Germany) making use of the AxioVision 4.4 software. Digital image analysis was performed with the daime software. Per group 10 pictures were randomly chosen and analyzed."}, "[6]": {"system": "planktonic S. aureus", "test": "MIC by isothermal microcalorimetry, planktonic bacteria", "assay_type": "cell-based, Staphylococcus aureus", "conditions": "all three tested bouillons (MH++, MH+, MH−), heat flow 24 hours, n = 3", "procedure": "Mueller-Hinton II bouillon with adjusted cations (MH^++; BBL, Germany), Mueller-Hinton bouillon with low cations (MH^+; with 3-4 mg/l Ca^2+ and 5-6 mg/l Mg^2+; Oxoid, Germany) and Mueller-Hinton bouillon without cations (MH^-; Merck, Germany). AMP2 concentrations of 2-33 μg/ml were tested with the three different bouillons and gentamicin concentrations of 0.125-2 μg/ml were analyzed with MH^++. Staphylococcus aureus (ATCC 29213, 300 μl with 10^5 cfu/ml) was added to each microcalorimetry glass ampoule (Waters; […] The ampoules were hermetically sealed and heat flow (W) was measured for 24 hours in the calorimeter TAM III (TA Instruments, USA). […] ROBU […], Germany) in MH^++ bouillon at 37 °C in an aerobe atmosphere for 24 hours. […] Beads were washed again and added to the glass ampoule with fresh MH^++ bouillon. The total heat (J) was measured for 48 hours in the calorimeter. A concentration, which inhibits minimum 90% of biofilm, can be defined as the minimal biofilm inhibitory concentration (MICB). All samples were tested with n = 6."}, "[7]": {"system": "S. aureus", "test": "Effect of FCS on AMP2 activity", "assay_type": "cell-based, Staphylococcus aureus", "conditions": "for bacterial growth: then 3 h with S. aureus, mean ± StD, n = 3", "procedure": "In a further experiment the possible effect of serum on AMP activity was investigated. AMP2 (67 µg/ml) was preincubated for 2 hours at 37 °C with different concentrations of FCS and then added to S. aureus.\nIn addition, the influence of fetal calf serum (FCS, containing 17 g/l albumin; Biochrom, Germany) on AMP activity was determined by preincubating 67 µg/ml of the AMP2 with 0–10% FCS at 37 °C for 2 hours followed by incubation with S. aureus for 3 hours. The control group, without AMP, was FCS free (n = 3)."}, "[8]": {"conditions": "4 µg/ml AMP2, 24 h in MH++ on 72 h biofilm"}},
  "data": [
    {"sequence": "KRRWRIWLV [AMP2, 9mer cationic antimicrobial peptide … from an optimized peptide library]", "values": [
      {"measurement": "concentrations with no negative effect on cell viability", "setting": "[1]", "result": "< 267", "unit": "µg/mL"},
      {"measurement": "concentrations with significant inhibition of viability compared to the control group", "setting": "[1]", "result": "≥ 267", "unit": "µg/mL"},
      {"measurement": "Zone of Inhibition, activity of incorporated peptide", "setting": "[2]", "result": "inhibited the growth of S. aureus in a dose dependent manner"},
      {"measurement": "migration after 24 hours", "setting": "[3]; 67 µg/ml AMP2", "result": "reduced the migration of cells"},
      {"measurement": "gap size after 48 hours", "setting": "[3]; 67 µg/ml AMP2, 0.1% FCS, gap at 0 hours = 100%", "result": 71, "unit": "%"},
      {"measurement": "migration after 24 hours", "setting": "[3]; 133 µg/ml AMP2 (data not shown)", "result": "no migration was observed"},
      {"measurement": "gap after 48 hours", "setting": "[3]; 133 µg/ml AMP2, 0.1% FCS", "result": "still complete open"},
      {"measurement": "free-area after 24 hours", "setting": "[3]; 4–33 µg/ml AMP2 (range also covers positive control and CM without AMP2), 0.1% FCS, gap at 0 hours = 100%", "result": "50–66%"},
      {"measurement": "cell-free area after 48 hours", "setting": "[3]; AMP2 concentrations up to 33 µg/ml, 0.1% FCS, gap at 0 hours = 100%", "result": "12–28%"},
      {"measurement": "effect on the osteogenic differentiation (expression of RUNX2, AP, Col1)", "setting": "[4]", "result": "no effect"},
      {"measurement": "reduction of FISH-positive (Cy3) area", "setting": "[5]; [8]", "result": 86, "unit": "%"},
      {"measurement": "reduction of the biofilm area (DAPI) compared to the untreated group", "setting": "[5]; [8]", "result": "up to 76%"},
      {"measurement": "reduction of FISH-positive (Cy3) area", "setting": "[5]; 8 µg/ml AMP2, 24 h in MH++ on 72 h biofilm", "result": 90, "unit": "%"},
      {"measurement": "MIC (calorimetry)", "setting": "[6]", "result": 8, "unit": "µg/mL"},
      {"measurement": "bacterial growth", "setting": "[7]; AMP2 67 µg/ml preincubated 2 h at 37 °C with 0% FCS", "result": "7 ± 9", "unit": "cfu/ml"},
      {"measurement": "bacterial growth", "setting": "[7]; AMP2 67 µg/ml preincubated 2 h at 37 °C with 0.1% FCS", "result": "37 ± 13", "unit": "cfu/ml"},
      {"measurement": "bacterial growth", "setting": "[7]; AMP2 67 µg/ml preincubated 2 h at 37 °C with 1% FCS", "result": "553 ± 255", "unit": "cfu/ml"},
      {"measurement": "bacterial growth", "setting": "[7]; AMP2 67 µg/ml preincubated 2 h at 37 °C with 10% FCS", "result": "2,078 ± 540 cfu/ml"},
      {"measurement": "bacterial growth compared to the group without AMP", "setting": "[7]; AMP2 67 µg/ml, 10% FCS", "result": "less than 2%"}
    ]}
  ]
}
